Like-named read-outs stand apart in the source and are kept apart here.
Columns and labels:
in vitro [1] = assay: in vitro; parameters: species or system HFF; conditions: human, hepg2 cells, read-out: HepG2 cells 80 uM
Description: (§1) The table summarizes the activity of each of the compounds in assays measuring recombinant TgMyoA ATPase activity, parasite growth and mammalian cell toxicity; the data on which the table is based are shown in Suppl. Figures 3-5. ATPase assay data correspond to relative luminescence units × 10^−6 (mean from 3 independent replicates +/-SEM) in the presence of 20 μM compound (Suppl. Figure 3). […] Growth assay data correspond to calculated IC50 and 95% confidence interval from a 5-6 day growth assay (Suppl. Figure 4). […] Toxicity assay entries summarize the results from 72-hour CellTox™ Green toxicity and CellTiter-Glo® viability assays on both human foreskin fibroblasts and HepG2 cells. Thresholds for mild and moderate toxicity and loss of viability compared to vehicle (DMSO) controls are indicated by the colored bars on the right hand side of Suppl. […] Fluorescence was measured daily to quantify parasite growth, in the continued presence of compound, over the next 7 days. RFU = relative fluorescence units. The data shown are the mean ± SEM from two independent biological replicates, each consisting of 3 technical replicates at all time points. […] See Figure 5A for a repeat of these growth assays and IC50 calculations. […] Cell viability/growth was measured using Promega CellTiter-Glo® (top panel) and toxicity was measured using Promega CellTox™ green (bottom panel). 0.1% w/v NaN3 served as a positive control for cytotoxicity / growth inhibition. Results are plotted relative to the DMSO controls. Bars show the mean of three independent experiments ± SEM.

[2] = tested on: T1, Toxoplasma gondii RH (tdTomato); assay: microbe, parasite or virus in culture; parameters: species or system HFF (host); tdTomato parasite growth in HFF cells, daily fluorescence, IC50 at day 5-6; conditions: HFF
T1 construct: RH
Description: 557 558 Parasite growth assays. Fluorescence-based growth assay. To quantify growth in the presence of compound(s), 1x10^4 559 tachyzoites were preincubated with compound for 5 minutes prior to inoculation onto 560 3 wells of a black sided, clear bottom 384-well plate containing a confluent monolayer of HFF cells. For 561 compound assays, parasites expressing tdTomato were incubated with vehicle or serial dilutions of 562 compound, maintaining a constant DMSO concentration (0.2% v/v). The fluorescent signal was 563 quantified daily for 7 days (ex 530/25, em 590/35) on a Biotek synergy 2 plate reader. The IC50 of growth 564 inhibitory compounds was quantified using GraphPad Prism. Plaque assay. 10, 100, 200, or 500 565 parasites were used to inoculate a confluent monolayer of HFF cells in a 12-well plate and incubated for 566 7 days at 37 °C, 5% CO2. Infected monolayers were then washed with phosphate-buffered saline, fixed 567 with 100% EtOH for five minutes, stained with 5X crystal violet solution (12.5 g crystal violet, 125 ml 568 100% EtOH, 500 ml 1% w/v ammonium oxalate) for 5 minutes, washed with PBS, and allowed to dry.  Figure 3: Preliminary structure-activity relationship (SAR) analysis. […] The table summarizes the activity of each of the compounds in assays measuring recombinant TgMyoA ATPase activity, parasite growth and mammalian cell toxicity; the data on which the table is based are shown in Suppl. Figures 3-5. ATPase assay data correspond to relative luminescence units × 10^−6 (mean from 3 independent replicates +/-SEM) in the presence of 20 μM compound (Suppl. Figure 3). […] Growth assay data correspond to calculated IC50 and 95% confidence interval from a 5-6 day growth assay (Suppl. Figure 4). […] Toxicity assay entries summarize the results from 72-hour CellTox™ Green toxicity and CellTiter-Glo® viability assays on both human foreskin fibroblasts and HepG2 cells. Thresholds for mild and moderate toxicity and loss of viability compared to vehicle (DMSO) controls are indicated by the colored bars on the right hand side of Suppl. […] Fluorescence was measured daily to quantify parasite growth, in the continued presence of compound, over the next 7 days. RFU = relative fluorescence units. The data shown are the mean ± SEM from two independent biological replicates, each consisting of 3 technical replicates at all time points. […] See Figure 5A for a repeat of these growth assays and IC50 calculations. […] Cell viability/growth was measured using Promega CellTiter-Glo® (top panel) and toxicity was measured using Promega CellTox™ green (bottom panel). 0.1% w/v NaN3 served as a positive control for cytotoxicity / growth inhibition. Results are plotted relative to the DMSO controls. Bars show the mean of three independent experiments ± SEM.

in vitro [3] = assay: in vitro; parameters: species or system HepG2; conditions: human, hff cells, read-out: HFF cells 80 uM
Description: as §1

[4] = target: T2, rabbit fast skeletal muscle myosin; assay: myofibril ATPase assay; format: biochemical, Oryctolagus cuniculus; conditions: 75% calcium activation (pCa75); up to 40 μM tested
T2 construct: gene MYH4; native rabbit fast skeletal myofibrils, full length, with native light chains and thin filaments
Description: myofibril ATPase assay on rabbit fast skeletal muscle myosin

In the case of COc1ccc(C2(NCc3c[nH]nc3-c3cccs3)CC2)cc1 [KNX-002, 1-(4-methoxyphenyl)-N-((3-(thiophen-2-yl)-1H-pyrazol-4-yl)methyl)cyclopropan-1-amine], the CC50 at 72 h (in vitro [1]) is reported as > 80 µM, the IC50 ([2]; read-out: IC50 (D5)) is reported as 14.9 µM and the IC50 ([2]; read-out: Parasite Growth IC50) is reported as 19.7 µM. For the same molecule, the CC50 at 72 h (in vitro [3]) was > 80 µM and the IC50 [4] was > 39.2 µM.

With c1csc(-c2n[nH]cc2CNC2CC2)c1 [VEST1, N-((3-(thiophen-2-yl)-1H-pyrazol-4-yl)methyl)cyclopropanamine] the CC50 at 72 h (in vitro [1]) was > 80 µM, the IC50 ([2]; read-out: Parasite Growth IC50) was > 80 µM and the CC50 at 72 h (in vitro [3]) was > 80 µM.

With Clc1ccc(C2(NCc3c[nH]nc3-c3cccs3)CC2)cc1 [VEST2, 1-(4-chlorophenyl)-N-((3-(thiophen-2-yl)-1H-pyrazol-4-yl)methyl)cyclopropan-1-amine] the IC50 ([2]; read-out: Parasite Growth IC50) was 15.5 µM.

For Cc1ccc(C2(NCc3c[nH]nc3-c3cccs3)CC2)cc1 [VEST3, N-((3-(thiophen-2-yl)-1H-pyrazol-4-yl)methyl)-1-(p-tolyl)cyclopropan-1-amine], the IC50 ([2]; read-out: Parasite Growth IC50) was 25.4 µM.

For Clc1ccc(C2(NCc3c[nH]nc3-c3cccs3)CC2)cc1Cl [VEST4, 1-(3,4-dichlorophenyl)-N-((3-(thiophen-2-yl)-1H-pyrazol-4-yl)methyl)cyclopropan-1-amine], the CC50 at 72 h (in vitro [1]) was > 80 µM, the IC50 ([2]; read-out: Parasite Growth IC50) was 31 µM and the CC50 at 72 h (in vitro [3]) was > 80 µM.

With c1ccc(C2(NCc3c[nH]nc3-c3cccs3)CC2)cc1 [VEST5, 1-phenyl-N-((3-(thiophen-2-yl)-1H-pyrazol-4-yl)methyl)cyclopropan-1-amine] the CC50 at 72 h (in vitro [1]) was > 80 µM, the IC50 ([2]; read-out: Parasite Growth IC50) was 9.9 µM and the CC50 at 72 h (in vitro [3]) was > 80 µM.

For COc1ccc(C2(NCc3c[nH]nc3-c3ccccc3)CC2)cc1 [VEST6, 1-(4-methoxyphenyl)-N-((3-phenyl-1H-pyrazol-4-yl)methyl)cyclopropan-1-amine], the CC50 at 72 h (in vitro [1]) was > 80 µM, the IC50 ([2]; read-out: Parasite Growth IC50) was 24.9 µM and the CC50 at 72 h (in vitro [3]) was > 80 µM.

In the case of COc1ccc(C2(NCc3ccccc3)CC2)cc1 [VEST7, N-benzyl-1-(4-methoxyphenyl)cyclopropan-1-amine], the CC50 at 72 h (in vitro [1]) is reported as > 80 µM, the IC50 ([2]; read-out: Parasite Growth IC50) is reported as > 80 µM and the CC50 at 72 h (in vitro [3]) is reported as > 80 µM.

With COc1ccc(C2(NCc3cncs3)CC2)cc1 [VEST8, 1-(4-methoxyphenyl)-N-(thiazol-5-ylmethyl)cyclopropan-1-amine] the CC50 at 72 h (in vitro [1]) was > 80 µM, the IC50 ([2]; read-out: Parasite Growth IC50) was > 80 µM and the CC50 at 72 h (in vitro [3]) was > 80 µM.

With COc1ccc(C2(NCc3ccoc3)CC2)cc1 [VEST9, N-(furan-3-ylmethyl)-1-(4-methoxyphenyl)cyclopropan-1-amine] the CC50 at 72 h (in vitro [1]) was > 80 µM, the IC50 ([2]; read-out: Parasite Growth IC50) was > 80 µM and the CC50 at 72 h (in vitro [3]) was > 80 µM.

With COc1ccc(C2(NCc3cc[nH]c3)CC2)cc1 [VEST10, N-((1H-pyrrol-3-yl)methyl)-1-(4-methoxyphenyl)cyclopropan-1-amine] the CC50 at 72 h (in vitro [1]) was > 80 µM, the IC50 ([2]; read-out: Parasite Growth IC50) was 21.7 µM and the CC50 at 72 h (in vitro [3]) was > 80 µM.

For COc1ccc(CNCc2c[nH]nc2-c2cccs2)cc1 [VEST11, N-(4-methoxybenzyl)-1-(3-(thiophen-2-yl)-1H-pyrazol-4-yl)methanamine], the CC50 at 72 h (in vitro [1]) was > 80 µM, the IC50 ([2]; read-out: Parasite Growth IC50) was > 80 µM and the CC50 at 72 h (in vitro [3]) was > 80 µM.

In the case of c1ccc(CNCc2c[nH]nc2-c2cccs2)cc1 [VEST12, N-benzyl-1-(3-(thiophen-2-yl)-1H-pyrazol-4-yl)methanamine], the CC50 at 72 h (in vitro [1]) is reported as > 80 µM and the IC50 ([2]; read-out: Parasite Growth IC50) is reported as > 80 µM.

For CC(C)(NCc1c[nH]nc1-c1cccs1)c1ccccc1 [VEST13, 2-phenyl-N-((3-(thiophen-2-yl)-1H-pyrazol-4-yl)methyl)propan-2-amine], the CC50 at 72 h (in vitro [1]) was > 80 µM and the IC50 ([2]; read-out: Parasite Growth IC50) was 27.1 µM.

With COc1ccc([C@@H](C)NCc2c[nH]nc2-c2cccs2)cc1 [VEST14, (R)-1-(4-methoxyphenyl)-N-((3-(thiophen-2-yl)-1H-pyrazol-4-yl)methyl)ethan-1-amine] the CC50 at 72 h (in vitro [1]) was > 80 µM and the IC50 ([2]; read-out: Parasite Growth IC50) was 44.3 µM.

With COc1ccc([C@H](C)NCc2c[nH]nc2-c2cccs2)cc1 [VEST15, (S)-1-(4-methoxyphenyl)-N-((3-(thiophen-2-yl)-1H-pyrazol-4-yl)methyl)ethan-1-amine] the CC50 at 72 h (in vitro [1]) was > 80 µM and the IC50 ([2]; read-out: Parasite Growth IC50) was 39.7 µM.

Source: doi:10.1101/2022.09.09.507210v3, “The class XIV myosin of Toxoplasma gondii, TgMyoA, is druggable in an animal model of infection” (biorxiv, 2023)
